Read-outs that look alike come from different tables or passages of the source.
Target: T1, GK (glucokinase, residues 12-465) (Homo sapiens, UniProt P35557)
T1 construct: I.D. No. 1 corresponds to residues 12-465 of glucokinase; made in house; host or cells: DH10b-T1r E. coli
T1 sequence (P35557 with tags, fused parts or gaps isoform P35557-2): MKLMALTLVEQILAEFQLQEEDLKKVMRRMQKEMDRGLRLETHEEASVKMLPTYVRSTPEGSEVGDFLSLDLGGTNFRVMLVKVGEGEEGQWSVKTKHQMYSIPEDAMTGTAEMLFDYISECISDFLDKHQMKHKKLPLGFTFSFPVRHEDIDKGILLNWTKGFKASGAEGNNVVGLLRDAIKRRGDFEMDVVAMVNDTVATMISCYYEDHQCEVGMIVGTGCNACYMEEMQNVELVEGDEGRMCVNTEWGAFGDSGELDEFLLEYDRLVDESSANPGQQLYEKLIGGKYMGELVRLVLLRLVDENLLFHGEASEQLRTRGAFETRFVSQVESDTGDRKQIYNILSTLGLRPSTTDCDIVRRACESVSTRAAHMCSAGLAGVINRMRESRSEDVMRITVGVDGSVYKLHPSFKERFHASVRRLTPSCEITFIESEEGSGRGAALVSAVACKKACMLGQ
Assay: enzymatic glucokinase activity assay (ATP consumption, KinaseGlo luminescence)
Assay type: biochemical
Settings: 5 μM ATP, 5 mM Glucose, reported as bins; for EC50: Kact = concentration that displays 50% of the maximal increase in GK activity, 60 min, room temperature, read-out: pKact
Source text: The activity of compounds as glucokinase activators may be assayed in vitro, in vivo or in a cell line. Provided below is an enzymatic glucokinase activity assay.
Purified glucokinase may be obtained as follows. […] SEQ.
The expression of recombinant glucokinase protein may be carried out by transformation and growth of DH10b-T1r E. coli cells incorporating the (pFLAG-CTC) plasmid in LB media. Protein expression can be induced in this system by the addition of IPTG to the culture medium.
Recombinant protein may be isolated from cellular extracts by passage over Sepharose Q Fast Flow resin (Pharmacia). This partially purified GK extract may then be further purified by a second passage over Poros HQ10 (Applied Biosystems). The purity of GK may be determined on denaturing SDS-PAGE gel. Purified GK may then be concentrated to a final concentration of 20.0 mg/ml. After flash freezing in liquid nitrogen, the proteins can be stored at −78° C. in a buffer containing 25 mM TRIS-HCl pH 7.6, 50 mM NaCl, and 0.5 mM TCEP.
The activation properties of compounds for GK may be determined using a black 384-well-plate format under the following reaction conditions: 25 mM Hepes pH 7.2, 25 mM NaCl, 10 mM MgCl2, 0.01% Brij35, 1 mM DTT, 5 μM ATP, 5 mM Glucose 2% DMSO. The amount of ATP consumed may be determined quantitatively by addition of equal volume of luciferase reagent (luciferase+beetle luciferin—KinaseGlo Luminescent Kinase Assay kit from Promega). The luminescence intensity may be measured by using the Analyst HT from LJL Biosystems.
The reaction mixture may then be incubated at room temperature for 60 min, and quenched and developed by addition of 10 μL of luciferase reagent. Luminescence intensities of the resulting reaction mixtures may be measured after a 10 min incubation at room temperature. The luminescence intensity may be measured by using the Analyst HT from LJL Biosystems.
pKact and % ACTmax values may be calculated by non-linear curve fitting of the compound concentrations and luminescence intensities to a standard inhibition/activation equation.

[1] = calculated maximal gain in GK enzyme activity at a saturating concentration of the compound, read-out: % ACTmax

| EC50 [nM] | Emax [1] [%] | Structure (SMILES) | Emax (read-out: % ACTmax, calculated maximal gain in GK enzyme activity at a saturating concentration of the compound) [%] |
| --- | --- | --- | --- |
| ≤ 316 | 106 to 110 | O=C(Nc1ncc(F)s1)[C@H](CC1CCOCC1)n1ncc2c(S(=O)(=O)C3CC3)cccc21 [Compound 69, (S)-2-(4-(cyclopropylsulfonyl)-1H-indazol-1-yl)-N-(5-fluorothiazol-2-yl)-3-(tetrahydro-2H-pyran-4-yl)propanamide] |  |
| ≤ 316 | 90 to 100 | O=C1CC[C@H](C[C@@H](C(=O)Nc2ncc(F)s2)n2ncc3c(S(=O)(=O)C4CC4)cc(Cl)cc32)C1 [Compound 79, (S)-2-(6-chloro-4-(cyclopropylsulfonyl)-1H-indazol-1-yl)-N-(5-fluorothiazol-2-yl)-3-((R)-3-oxocyclopentyl)propanamide] |  |
| ≥ 15800 | ≤ 90 | COc1ccc2nc(NC(=O)[C@H](CC3CCOCC3)n3cc(S(=O)(=O)C4CC4)cn3)sc2n1 [Compound 26, (S)-2-(4-(cyclopropylsulfonyl)-1H-pyrazol-1-yl)-N-(5-methoxythiazolo[5,4-b]pyridin-2-yl)-3-(tetrahydro-2H-pyran-4-yl)propanamide] |  |
| ≤ 316 | ≥ 111 | O=C(Nc1ncc(F)s1)C(CC1CCOCC1)n1ncc2c(S(=O)(=O)C3CC3)c(Cl)ccc21 (centres unmarked) [Compound 22, 2-(5-chloro-4-(cyclopropylsulfonyl)-1H-indazol-1-yl)-N-(5-fluorothiazol-2-yl)-3-(tetrahydro-2H-pyran-4-yl)propanamide] |  |
| ≥ 15800 | 101 to 105 | O=C(Nc1cnccn1)C(CC1CCOCC1)n1cc(S(=O)(=O)C2CC2)cn1 (centres unmarked) [Compound 46, 2-(4-(cyclopropylsulfonyl)-1H-pyrazol-1-yl)-N-(pyrazin-2-yl)-3-(tetrahydro-2H-pyran-4-yl)propanamide] |  |
| ≥ 15800 | 106 to 110 | Cn1ccc(NC(=O)C(CC2CCOCC2)n2cc3c(S(=O)(=O)C4CC4)c(F)ccc3n2)n1 (centres unmarked) [Compound 153, 2-(4-(cyclopropylsulfonyl)-5-fluoro-2H-indazol-2-yl)-N-(1-methyl-1H-pyrazol-3-yl)-3-(tetrahydro-2H-pyran-4-yl)propanamide] |  |
| 398 to 1260 | 90 to 100 | Cn1ccc(NC(=O)C(CC2CCOCC2)n2ncc3c(S(=O)(=O)C4CC4)cc(Cl)cc32)n1 (centres unmarked) [Compound 101, 2-(6-chloro-4-(cyclopropylsulfonyl)-1H-indazol-1-yl)-N-(1-methyl-1H-pyrazol-3-yl)-3-(tetrahydro-2H-pyran-4-yl)propanamide] |  |
| ≤ 316 | ≤ 90 | Cn1ccc(NC(=O)C(CC2CCOCC2)n2ncc3c(S(=O)(=O)C4CC4)cc(C#N)cc32)n1 (centres unmarked) [Compound 19, 2-(6-cyano-4-(cyclopropylsulfonyl)-1H-indazol-1-yl)-N-(1-methyl-1H-pyrazol-3-yl)-3-(tetrahydro-2H-pyran-4-yl) propanamide] |  |
| 398 to 1260 | ≥ 111 | O=C(Nc1ncc(Cl)s1)[C@H](CC1CCOCC1)n1ncc2cc(S(=O)(=O)C3CC3)ccc21 [Compound 48, (S)-N-(5-chlorothiazol-2-yl)-2-(5-(cyclopropylsulfonyl)-1H-indazol-1-yl)-3-(tetrahydro-2H-pyran-4-yl)propanamide] |  |
| 3980 to 12600 | ≥ 111 | O=C(Nc1ccncn1)C(CC1CCOCC1)n1ncc2c(S(=O)(=O)C3CC3)cccc21 (centres unmarked) [Compound 124, 2-(4-(cyclopropylsulfonyl)-1H-indazol-1-yl)-N-(pyrimidin-4-yl)-3-(tetrahydro-2H-pyran-4-yl)propanamide] |  |
| ≥ 15800 | ≤ 90 | N#Cc1cccnc1NC(=O)C(CC1CCOCC1)n1ncc2c(S(=O)(=O)C3CC3)cccc21 (centres unmarked) [Compound 86, N-(3-cyanopyridin-2-yl)-2-(4-(cyclopropylsulfonyl)-1H-indazol-1-yl)-3-(tetrahydro-2H-pyran-4-yl)propanamide] |  |
| ≥ 15800 | 90 to 100 | COc1cc(S(=O)(=O)C2CC2)c2cn(C(CC3CCOCC3)C(=O)Nc3ncc(F)s3)nc2c1 (centres unmarked) [Compound 73, 2-(4-(cyclopropylsulfonyl)-6-methoxy-2H-indazol-2-yl)-N-(5-fluorothiazol-2-yl)-3-(tetrahydro-2H-pyran-4-yl)propanamide] |  |
| 3980 to 12600 | ≤ 90 | COc1cc(S(=O)(=O)C2CC2)c2cnn(C(CC3CCOCC3)C(=O)Nc3cnccn3)c2c1 (centres unmarked) [Compound 92, 2-(4-(cyclopropylsulfonyl)-6-methoxy-1H-indazol-1-yl)-N-(pyrazin-2-yl)-3-(tetrahydro-2H-pyran-4-yl)propanamide] |  |
| ≥ 15800 | ≤ 90 | O=C(Nc1ncc(F)s1)C(CC1CCOCC1)n1cc2c(S(=O)(=O)C3CC3)cncc2n1 (centres unmarked) [Compound 140, 2-(4-(cyclopropylsulfonyl)-2H-pyrazol[3,4-c]pyridin-2-yl)-N-(5-fluorothiazol-2-yl)-3-(tetrahydro-2H-pyran-4-yl)propanamide] |  |
| ≥ 15800 | ≤ 90 | COc1ccc2nc(NC(=O)[C@@H](CC3CCOCC3)n3cc(S(=O)(=O)C4CC4)cn3)sc2n1 [Compound 25, (R)-2-(4-(cyclopropylsulfonyl)-1H-pyrazol-1-yl)-N-(5-methoxythiazolo[5,4-b]pyridin-2-yl)-3-(tetrahydro-2H-pyran-4-yl)propanamide] |  |
| 1580 to 3160 | 90 to 100 | O=C(Nc1ncc(F)s1)C(CC1CCOCC1)n1ncc2c(S(=O)(=O)C3CC3)c(OC(F)F)ccc21 (centres unmarked) [Compound 87, 2-(4-(cyclopropylsulfonyl)-5-(difluoromethoxy)-1H-indazol-1-yl)-N-(5-fluorothiazol-2-yl)-3-(tetrahydro-2H-pyran-4-yl)propanamide] |  |
| ≤ 316 | 101 to 105 | COc1ccc2c(cnn2C(CC2CCOCC2)C(=O)Nc2ncc(F)s2)c1S(=O)(=O)C1CC1 (centres unmarked) [Compound 80, 2-(4-(cyclopropylsulfonyl)-5-methoxy-1H-indazol-1-yl)-N-(5-fluorothiazol-2-yl)-3-(tetrahydro-2H-pyran-4-yl)propanamide] |  |
| 1580 to 3160 | 101 to 105 | O=C(Nc1cnccn1)[C@H](CC1CCOCC1)n1ncc2c(S(=O)(=O)C3CC3)cccc21 [Compound 89, (S)-2-(4-(cyclopropylsulfonyl)-1H-indazol-1-yl)-N-(pyrazin-2-yl)-3-(tetrahydro-2H-pyran-4-yl)propanamide] |  |
| 398 to 1260 | 106 to 110 | Nc1cc(S(=O)(=O)C2CC2)c2cnn([C@@H](CC3CCOCC3)C(=O)Nc3cnccn3)c2n1 [Compound 164, (S)-2-(6-amino-4-(cyclopropylsulfonyl)-1H-pyrazolo[3,4-b]pyridin-1-yl)-N-(pyrazin-2-yl)-3-(tetrahydro-2H-pyran-4-yl)propanamide] |  |
| ≥ 15800 | ≤ 90 | CC(C)(C)S(=O)(=O)c1cnn([C@@H](CC2CCOCC2)C(=O)Nc2ncc(F)s2)c1 [Compound 53, (S)-2-(4-(tert-butylsulfonyl)-1H-pyrazol-1-yl)-N-(5-fluorothiazol-2-yl)-3-(tetrahydro-2H-pyran-4-yl)propanamide] |  |
| ≤ 316 | 101 to 105 | O=C(Nc1ncc(F)s1)C(CC1CCOCC1)n1ncc2c(S(=O)(=O)C3CC3)cc(O)cc21 (centres unmarked) [Compound 130, 2-(4-(cyclopropylsulfonyl)-6-hydroxy-1H-indazol-1-yl)-N-(5-fluorothiazol-2-yl)-3-(tetrahydro-2H-pyran-4-yl)propanamide] |  |

| Structure (SMILES) | EC50 [nM] | Emax [1] [%] | Emax (read-out: % ACTmax, calculated maximal gain in GK enzyme activity at a saturating concentration of the compound) [%] |
| --- | --- | --- | --- |
| O=C(Nc1cnccn1)[C@H](CC1CCOCC1)n1ncc2c(S(=O)(=O)C3CC3)cncc21 [Compound 171, (S)-2-(4-(cyclopropylsulfonyl)-1H-pyrazolo[3,4-c]pyridin-1-yl)-N-(pyrazin-2-yl)-3-(tetrahydro-2H-pyran-4-yl)propanamide] | 1580 to 3160 |  | 106 to 110 |

— US8563730B2, “Pyrazole and fused pyrazole glucokinase activators” (Takeda San Diego, Inc., priority 2008, dated 2013)
